Measured values from EP1322622B1, “NEW N, N'-DISUBSTITUTED BENZIMIDAZOLONE DERIVATIVES WITH AFFINITY AT THE SEROTONIN AND DOPAMINE RECEPTORS” (Sprout Pharmaceuticals, Inc., priority 2000, dated 2002).

Tests used:
CHO/5-HT1A cells = target: T1, CHO/5-HT1A cells (Homo sapiens, UniProt P08908); test: 5-HT1A Functional assay (cAMP); format: cell-based; conditions: 10 µM compound, % inhibition of the cAMP accumulation induced by 10 µM FSK; for inhibition at 10 µM: read-out: 5-HT1A cAMP % inhib.
T1 construct: expressed in transfected cells; host or cells: CHO/5-HT1A cells
T1 sequence (P08908 1-422): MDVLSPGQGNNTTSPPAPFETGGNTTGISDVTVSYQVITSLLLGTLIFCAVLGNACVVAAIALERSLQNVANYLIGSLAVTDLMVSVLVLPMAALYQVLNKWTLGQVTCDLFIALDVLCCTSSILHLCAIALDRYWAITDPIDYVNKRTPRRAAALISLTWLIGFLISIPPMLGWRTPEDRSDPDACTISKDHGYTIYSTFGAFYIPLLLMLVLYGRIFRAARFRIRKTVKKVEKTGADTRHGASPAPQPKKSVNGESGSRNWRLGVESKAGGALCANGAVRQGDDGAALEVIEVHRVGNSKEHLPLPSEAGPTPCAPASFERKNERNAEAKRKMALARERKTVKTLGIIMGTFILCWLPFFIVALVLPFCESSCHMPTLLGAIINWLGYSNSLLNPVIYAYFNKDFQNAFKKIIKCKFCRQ
Experimental: CHO/5-HT1A cells were random seeded at a density of about 200,000/well in 24 well plates the day prior to the experiment. On the day of the experiment, cells were pretreated for 15 min at 37 °C with 500 µM isobuthylmethylxantine (IBMX) dissolved in culture medium without serum. Wells were then divided in different groups in duplicate as follows: control, 10 µM FSK, 10 µM FSK + 1 µM 5-HT as positive standard and 10 µM FSK + 10 µM of the different compound under evaluation. Sample solutions were added and incubated for additional 15 min at 37 °C. After incubation, medium was aspirated and the reaction stopped by adding 200 µl of lysis buffer. Plates were shaken for 5 min, then the lysate was removed and samples were stored at 4 °C until the day of the assay. For the cAMP evaluation, samples were properly diluted and the cAMP content was measured by an enzymeimmunoassay system.

5-HT1A human receptors = target: T2, 5-HT1A human receptors (Homo sapiens, UniProt P08908); test: 5-HT1A Radioligand Receptor Binding Assay ([3H]-8-OH-DPAT, CHO cell membranes); conditions: compound at 10^-7 M, singlicate; [3H]-8-OH-DPAT 0.6-0.7 nM; read-out: 5-HT1A receptor binding assay % inhib. (10^-7 M)
T2 construct: expressed in transfected cells; host or cells: CHO cells
T2 sequence (P08908 1-422): T1 sequence (P08908 1-422)
Experimental: Membranes from CHO cells, expressing 5-HT1A human receptors were suspended in incubation buffer.
The compounds were tested in singlicate at one concentration (10^-7 M) in a total volume of 1000 µl. 980 µl of diluted membranes, 10 µl DMSO or unlabelled ligand and 10 µl of [^3H]-8-OH-DPAT (0.6-0.7 nM) were incubated for 60 min at 27 °C. The reaction was stopped by rapid filtration through Tomtec cell Harvester (48 wells) using Filtermat B (presoaked in 0.1% PEI) filters. […] Non specific binding was determined in the presence of 5-HT (10^-5 M).
(§1) The specific radioligand binding to the receptor was defined by the difference between total binding and non specific binding, determined in the presence of an excess of unlabelled ligand. Results were expressed as percentage of control specific binding obtained in the presence of the compounds.
The affinity values (IC50) for the compounds were obtained by a non linear least squares regression analysis on the basis of a one binding site model.

D4 human receptors = target: T3, D4 human receptors (Homo sapiens, UniProt P21917); test: D4 Radioligand Receptor Binding Assay ([3H] YM-09151-2, CHO cell membranes); conditions: compound at 10^-7 M, singlicate; [3H] YM-09151-2 0.15-0.25 nM; read-out: D4 receptor binding assay % inhib. (10^-7 M)
T3 construct: expressed in transfected cells; host or cells: CHO cells
T3 sequence (P21917 1-419): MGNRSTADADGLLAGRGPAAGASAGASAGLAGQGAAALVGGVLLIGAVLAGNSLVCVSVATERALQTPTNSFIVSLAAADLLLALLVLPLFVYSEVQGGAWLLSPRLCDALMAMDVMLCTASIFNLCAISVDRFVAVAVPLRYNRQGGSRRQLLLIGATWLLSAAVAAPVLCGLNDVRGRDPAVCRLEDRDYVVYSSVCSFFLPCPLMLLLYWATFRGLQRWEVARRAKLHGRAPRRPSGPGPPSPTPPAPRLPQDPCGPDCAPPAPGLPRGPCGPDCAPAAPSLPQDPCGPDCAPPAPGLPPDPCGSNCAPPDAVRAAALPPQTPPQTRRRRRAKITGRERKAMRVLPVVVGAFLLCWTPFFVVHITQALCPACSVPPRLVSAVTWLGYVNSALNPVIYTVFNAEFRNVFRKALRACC
Experimental: Membranes from CHO cells, expressing D4 human receptors were suspended in incubation buffer.
Binding assays were performed in MultiProbe 204 pipetting system (Packard), according to a predetermined mapping, consistent with the software Screen. The compounds were tested in singlicate at one concentration (10^-7 M) in a total volume of 1000 µl (980 µl of diluted membranes, 10 µl DMSO or unlabelled ligand and 10 µl of [^3H] YM-09151-2 (0.15-0.25 nM). After incubation for 120 min at 27 °C, the reaction was stopped by rapid filtration through Tomtec cell Harvester (48 wells) using Filtermat B (presoaked in 0.1% PEI) filters. Filters were washed with ice-cold 50 mM Tris-HCl (pH 7.4) buffer (9 x 700 µl), dryed, covered with MeltiLex B/HS (Wallac) scintillator sheets and heated in oven at 80-90 °C for about 10 min, transferred into plastic sample bags (Wallac), sealed and put into 1024 Beta Plate scintillation counter (Wallac). Non specific binding was determined in the presence of clozapine dissolved in DMSO to a final concentration of 10^-5 M.
as §1

SMILES | inhibition at 10 µM (CHO/5-HT1A cells) | inhibition at 0.1 µM (5-HT1A human receptors) | inhibition at 0.1 µM (D4 human receptors) | 5-HT1A cAMP % inhib. (CHO/5-HT1A cells)
CS(=O)(=O)NCCn1c(=O)n(C/C=C/CN2CCN(c3ccccn3)CC2)c2ccccc21 [compound 520] | 70% |  |  | 
COc1ccccc1N1CCN(C/C=C/Cn2c(=O)n(CCNS(C)(=O)=O)c3ccccc32)CC1 [compound 535] |  | 97% | 39% | 
O=c1n(C/C=C/CN2CCN(c3cccc(C(F)(F)F)c3)CC2)c2ccccc2n1CCN1CCOCC1 [compound 352] | 79% |  |  | 
O=c1n(C/C=C/CN2CCN(c3ccccn3)CC2)c2ccccc2n1CCN1CCOCC1 [compound 347] | 65% |  |  | 
COCCn1c(=O)n(C/C=C/CN2CCN(c3ccccc3)CC2)c2ccccc21 [compound 293] |  | 89% | 32% | 
O=c1n(C/C=C/CN2CCN(c3ccccn3)CC2)c2ccccc2n1CCO [compound 381] | 79% |  |  | 
CS(=O)(=O)NCCn1c(=O)n(CC=CCN2CCN(c3cccc(Cl)c3)CC2)c2ccccc21 [compound 521] |  |  |  | 67%
O=c1n(C/C=C\CN2CCN(c3ccccc3)CC2)c2ccccc2n1CCO [compound 361] |  | 86% | 46% | 
CCNC(=O)OCCn1c(=O)n(C/C=C\CN2CCN(c3ccccc3)CC2)c2ccccc21 [compound 395] |  | 86% | 32% | 
O=c1n(C/C=C\CN2CCN(c3ccc(Cl)c(Cl)c3)CC2)c2ccccc2n1CCO [compound 371] |  | 59% | 95% | 
COc1ccccc1N1CCN(CCn2c(=O)n(CCN3CCCCC3)c3ccccc32)CC1 [compound 159] |  | 85% | 50% | 
O=c1n(C/C=C/CN2CCN(c3cccc(Cl)c3)CC2)c2ccccc2n1CCN1CCOCC1 [compound 348] |  | 99% | 51% | 
O=c1n(CC=CCN2CCc3c([nH]c4ccccc34)C2)c2ccccc2n1CCN1CCOCC1 [compound 265] |  | 55% | 78% | 
COc1ccccc1N1CCN(CCn2c(=O)n(CCNS(C)(=O)=O)c3ccccc32)CC1 [compound 255] |  | 58% | 33% | 
COc1ccccc1N1CCN(CCCCn2c(=O)n(CCO)c3ccccc32)CC1 [compound 74] |  | 92% | 62% | 
O=c1n(CCO)c2ccccc2n1CCCCN1CC=C(c2ccccc2)CC1 [compound 65] |  | 52% | 74% | 
O=c1n(CCO)c2ccccc2n1CCCCN1CCN(c2ccc(Cl)c(Cl)c2)CC1 [compound 66] |  | 65% | 99% | 
CS(=O)(=O)NCCn1c(=O)n(CCN2CCN(c3cccc(Cl)c3)CC2)c2ccccc21 [compound 241] |  | 69% | 32% | 
O=c1n(CCN2CC=C(c3ccccc3)CC2)c2ccccc2n1CCN1CCCCC1 [compound 150] |  | 57% | 52% | 
COCCn1c(=O)n(C/C=C/CN2CCN(c3ccc(Cl)c(Cl)c3)CC2)c2ccccc21 [compound 303] |  | 71% | 70% | 

SMILES | inhibition at 10 µM (CHO/5-HT1A cells) | inhibition at 0.1 µM (5-HT1A human receptors) | inhibition at 0.1 µM (D4 human receptors) | 5-HT1A cAMP % inhib. (CHO/5-HT1A cells)
COCCn1c(=O)n(CC=CCN2CCN(c3cccc(Cl)c3)CC2)c2ccccc21 [compound 280] |  | 93% | 38% | 
CS(=O)(=O)NCCn1c(=O)n(C/C=C\CN2CCc3c([nH]c4ccccc34)C2)c2ccccc21 [compound 501] |  | 70% | 63% | 
CCNC(=O)OCCn1c(=O)n(CCN2CCN(c3ccccc3OC)CC2)c2ccccc21 [compound 216] |  | 92% | 44% | 
CCNC(=O)OCCn1c(=O)n(CCCCN2CCN(c3ccccc3)CC2)c2ccccc21 [compound 75] |  | 67% | 54% | 
O=c1n(C/C=C/CN2CCN(c3ccccc3)CC2)c2ccccc2n1CCO [compound 378] |  | 77% | 35% | 
O=c1n(C/C=C\CN2CCc3c([nH]c4ccccc34)C2)c2ccccc2n1CCN1CCCCC1 [compound 316] |  | 72% | 94% | 
CS(=O)(=O)NCCn1c(=O)n(C/C=C/CN2CCN(c3ccc(Cl)c(Cl)c3)CC2)c2ccccc21 [compound 527] |  | 73% | 36% | 
O=c1n(C/C=C\CN2CCc3c([nH]c4ccccc34)C2)c2ccccc2n1CCO [compound 367] |  | 61% | 90% | 
O=c1n(CCO)c2ccccc2n1CCCCN1CCc2c([nH]c3ccccc23)C1 [compound 62] |  | 73% | 96% | 
O=c1n(C/C=C\CN2CCN(c3ccccn3)CC2)c2ccccc2n1CCO [compound 364] |  | 77% | 36% | 
Cc1cccc(N2CCN(CCn3c(=O)n(CCNS(C)(=O)=O)c4ccccc43)CC2)c1 [compound 256] |  | 59% | 51% | 
O=c1n(CCN2CC=C(c3ccccc3)CC2)c2ccccc2n1CCN1CCOCC1 [compound 229] |  | 67% | 34% | 
O=c1n(C/C=C\CN2CCN(C(c3ccccc3)c3ccc(Cl)cc3)CC2)c2ccccc2n1CCN1CCCCC1 (stereo not drawn) [compound 311] |  | 59% | 60% | 
CS(=O)(=O)NCCn1c(=O)n(C/C=C\CN2CCN(c3ccc(Cl)c(Cl)c3)CC2)c2ccccc21 [compound 505] |  | 78% | 58% | 
O=c1n(C/C=C\CN2CC=C(c3ccccc3)CC2)c2ccccc2n1CCN1CCCCC1 [compound 319] |  | 94% | 70% | 
CCNC(=O)OCCn1c(=O)n(C/C=C/CN2CCN(c3ccccc3)CC2)c2ccccc21 [compound 412] |  | 93% | 39% | 
COCCn1c(=O)n(C/C=C\CN2CCN(c3ccc(Cl)c(Cl)c3)CC2)c2ccccc21 [compound 286] |  | 65% | 87% | 
O=c1n(CCN2CCOCC2)c2ccccc2n1CCN1CCN(c2cccc(Cl)c2)CC1 [compound 224] |  | 98% | 51% | 
O=c1n(CCO)c2ccccc2n1CCCCN1CCN(c2ccccn2)CC1 [compound 59] |  | 75% | 51% | 
O=c1n(CCN2CCCCC2)c2ccccc2n1CCN1CCN(c2cccc(C(F)(F)F)c2)CC1 [compound 149] |  | 88% | 35% | 
